Entries after “also recorded” stand apart in the source; their conditions may differ. Non-standard residues stand in square brackets, D forms with d. Residues, ends and D or L forms follow the SMILES beside them. *: point of attachment. Biotin = O=C1N[C@H]2[C@H](CS[C@H]2CCCCC(=O)*)N1; Benzoyl(4-SO2F) = O=C(c1ccc(S(=O)(=O)F)cc1)*; pY = N[C@@H](Cc1ccc(OP(=O)(O)O)cc1)C(=O)O; Dap = NC[C@H](N)C(=O)O
Assays:
Nck/N-WASP/3pY [1] = molecular target: T1, Nck/N-WASP/3pY (Homo sapiens, UniProt P16333); test: Disruption of Nck/N-WASP/3pY droplets by pY peptides (microscopy); assay type: biochemical; conditions: peptide 12.5, 25, 50, 100 µM; 0, 10, 30 min; Nck 80 μM, N-WASP 15 μM, 3pY 10 μM; confocal
T1 construct: GST (followed by PreScission/HRV 3C site) (N, cleaved yes); made in house; host or cells: E. coli BL21(DE3)
Procedure: (§1) Next, we explored the intervention of Nck/N-WASP/3pY LLPS using pY peptides (Figure 3a). Three pY-containing peptides extracted from different Tir sequences were synthesized, namely, peptides Y474, Y751, and Y147 (Figure 3b).
Figure 3 pY peptides disrupt Nck/N-WASP/3pY LLPS. (a) Sequences of synthetic pY peptides. […] Nck: 20 μM; N-WASP: 10 μM; 3pY: 10 μM. Scale bars, 20 μm. (c) Peptide Y474 rapidly decreases the turbidity of the Nck/N-WASP/3pY solution in around 20 min. Nck: 20 μM, N-WASP: 10 μM, 3pY: 10 μM. […] Nck: 20 μM, N-WASP: 10 μM, 3pY: 10 μM. […]
peptide 0 min 10 min 30 min
Peptides p1 with different concentrations were added to decrease the droplet formation of the Nck/N-WASP/3pY solution and droplet disassembles were observed under confocal microscopy at different times (0 min, 10 min and 30 min). Nck: 80 μM, N-WASP: 15 μM, 3pY: 10 μM. […]
Figure S13. […] Peptides Y474 with […]
different concentrations were added to decrease the droplet formation of the Nck/N-WASP/3pY solution and droplet disassembles were observed under confocal microscopy at different times (0 min, 10 min and 30 min). Nck: 80 μM, N-WASP: 15 μM, 3pY: 10 μM.

Nck/N-WASP/3pY [2] = molecular target: T1, Nck/N-WASP/3pY; test: Turbidity assay of Nck/N-WASP/3pY solution; assay type: biochemical; conditions: Nck droplets; text cites Figures S12 and S13
Procedure: as §1
Figure 3 pY peptides disrupt Nck/N-WASP/3pY LLPS. (a) Sequences of synthetic pY peptides. […] Nck: 20 μM; N-WASP: 10 μM; 3pY: 10 μM. Scale bars, 20 μm. (c) Peptide Y474 rapidly decreases the turbidity of the Nck/N-WASP/3pY solution in around 20 min. Nck: 20 μM, N-WASP: 10 μM, 3pY: 10 μM. […] Nck: 20 μM, N-WASP: 10 μM, 3pY: 10 μM.
(Cytiva, Hong Kong) using a gradient from 100 to 500 mM NaCl and Superdex 75 10/300 GL column (Cytiva, Hong Kong) in 25 mM HEPES, 150 mM NaCl, and 2 mM βME at pH 7.5.
Proteins were buffer-exchanged through a Hi-trap desalting column (Cytiva, Hong Kong) to the reaction buffer. For Cy5 labeling, the buffer was 0.1 M sodium bicarbonate buffer at pH 8.3. For FITC labeling, the buffer was 50 mM sodium borate at pH 8.5. […]
Fluorescence Recovery after Photobleaching (FRAP) Assay
Fluorescence recovery in vitro was conducted with a DMi8 microscope (Leica, Germany). […]
The fluorescence intensity was quantified and normalized by ImageJ.
Fluorescence recovery after photobleaching experiments inside mammalian cells was conducted with a two-photon imaging system using a custom-built upright microscope, based on a previously used imaging setup. […]

Structure (SMILES): CC[C@H](C)[C@H](NC(=O)[C@H](Cc1c[nH]cn1)NC(=O)[C@H](CCC(=O)O)NC(=O)[C@H](CCC(=O)O)NC(=O)CCCC[C@@H]1SC[C@@H]2NC(=O)N[C@@H]21)C(=O)N[C@@H](Cc1ccc(OP(=O)(O)O)cc1)C(=O)N[C@@H](CNC(=O)c1ccc(S(=O)(=O)F)cc1)C(=O)N[C@@H](CCC(=O)O)C(=O)N[C@H](C(=O)N[C@@H](C)C(=O)N[C@@H](C)C(=O)N[C@@H](CC(=O)O)C(N)=O)C(C)C [p1] (Biotin-EEHI[pY][Dap](Benzoyl(4-SO2F))EVAAD-NH2; N-terminus and C-terminus assumed)
- reversal of Nck/N-WASP/3pY phase separation (droplet disassembly) (Nck/N-WASP/3pY [1]): reverses the phase separation; also recorded: disintegrate phase-separated Nck droplets
- reduction of solution turbidity, p1 and Y474 compared (Nck/N-WASP/3pY [2]): reduce the turbidity of the solution

From publication PMC10755736, “Modulating Liquid–Liquid Phase Separation of Nck Adaptor Protein against Enteropathogenic Escherichia coli Infection” (ACS Central Science, 2023)
